Values of other authors in article PMC5111556 (Organic & biomolecular chemistry, 2016).

Tested on: αvβ3

## Cilengitide
  αvβ3-targeted antiangiogenic therapy (in words): initial promise
